Source: patent US20230201188A1, “COMPOSITIONS AND METHODS FOR TREATING LEUKEMIA” (Augusta University Research Institute, Inc., priority 2020, published 2023)

Key:
b-cat = b-cat gene expression in HUT102 cells (RT-PCR); format: cell-based; conditions: at 2 uM and above, FIG. 2
Protocol: (§1) HUT102 cells were treated with different concentrations of Compound 17 (0.5 uM, 1 uM, 2 uM and 4 uM). Expression of b-cat, c-myc, and survivin were evaluated using RT-PCR.

c-myc = c-myc gene expression in HUT102 cells (RT-PCR); format: cell-based; conditions: at 2 uM and above, FIG. 2
Protocol: as §1

survivin = survivin gene expression in HUT102 cells (RT-PCR); format: cell-based; conditions: at 2 uM and above, FIG. 2
Protocol: as §1

[1] = tested on: patient-derived ATL cells; experiment: ATL patient-derived cell viability; format: cell-based; conditions: various concentrations, FIG. 1B
Protocol: (§2) HUT 102 cells and patient-derived ATL cells were treated with various concentrations of mJJ64C (Compound 17) or mJJ64 (Compound 1). Cell viability was determined.

Akt3 = Akt3 (Homo sapiens, UniProt Q9Y243); experiment: Akt3 inhibition (no method described)
HUT102 cells = experiment: HUT102 cell viability; format: cell-based; conditions: various concentrations, FIG. 1A
Protocol: as §2

Akt3, sequence (Q9Y243 whole entry): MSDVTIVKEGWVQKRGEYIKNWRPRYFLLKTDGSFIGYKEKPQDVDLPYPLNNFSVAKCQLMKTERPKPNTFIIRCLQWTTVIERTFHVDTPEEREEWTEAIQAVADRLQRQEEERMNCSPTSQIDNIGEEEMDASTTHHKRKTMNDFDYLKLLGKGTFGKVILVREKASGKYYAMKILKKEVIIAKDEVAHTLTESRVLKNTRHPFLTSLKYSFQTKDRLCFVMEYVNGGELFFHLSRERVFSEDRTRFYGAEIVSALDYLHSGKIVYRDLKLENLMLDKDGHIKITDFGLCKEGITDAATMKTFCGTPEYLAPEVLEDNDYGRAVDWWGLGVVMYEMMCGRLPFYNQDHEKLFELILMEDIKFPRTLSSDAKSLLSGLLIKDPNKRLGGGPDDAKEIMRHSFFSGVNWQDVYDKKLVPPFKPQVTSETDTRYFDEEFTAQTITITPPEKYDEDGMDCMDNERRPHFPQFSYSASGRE

O=C(Nc1cccc(Nc2ccncc2)c1)c1cccc(Nc2ccnc3ccc(F)cc23)c1 [Compound 17]
expression of b-cat (b-cat): significantly inhibits
expression of c-myc (c-myc): significantly inhibits
expression of survivin (survivin): significantly inhibits

O=C(Nc1ccc(Nc2ccncc2)cc1)c1ccc(Nc2ccnc3ccc([N+](=O)[O-])cc23)cc1 [Compound 1, 4-[(6-nitroquinolin-4-yl)amino]-N-[4-(pyridin-4-ylamino)phenyl]benzamide]
cell viability [1]: reduce cell viability
Akt3 activity (Akt3): selectively inhibits Akt3 activity

O=C(O)c1ccc2nccc(Nc3ccc(C(=O)Nc4ccc(Nc5ccncc5)cc4)cc3)c2c1 [Compound 18]
cell viability (HUT102 cells): reduce cell viability
